Key:
Assay in all cases: Example 1: quantification of 4M3H on cotton fabric with 14-methylhexadecanoic acid
[1] = tested on: Moraxella sp. 4-1; assay type: cell-based; conditions: 37° C., 24 hours, vs sterilized water
Experimental: (§1) 10 mL of methanol was added to the towel that had been left to stand still for 24 hours, and 1 mL of the methanol was mixed with 1 mL of ADAM (9-anthrydiazomethanene, manufactured by Funakoshi Corp., 0.1 w/v %). The mixture was left to stand for 60 minutes at room temperature, and thus derivatization was carried out.
(§2) Thereafter, 10 μL of the solution was analyzed by using LC-FL (liquid chromatography apparatus: HITACHI ELITE LaChrom (trade name, manufactured by Hitachi, Ltd.), column: Lichrosphere 100 RP-8(e) (trade name, manufactured by Agilent Technologies, Inc., 5 μm×125 mm×4 mmφ), column temperature: 40° C., eluent a mixed solution of acetonitrile/water=7/3 (volume ratio), flow rate: 1.0 mL/min, detector: excitation wavelength (365 nm), measurement wavelength (412 nm)), and thereby quantification of 4M3H thus produced was carried out. In regard to the amount of production of 4M3H, a sample which produced 4M3H in an amount of more than 1 μg was rated as “[…]”; a sample which produced 4M3H in an amount of more than 0.1 μg and 1 μg or less was rated as “∘”; a sample which produced 4M3H in an amount of more than 0 μg and 0.1 μg or less was rated as “Δ”; and a sample in which no 4M3H was detected was rated as “x”.
(§3) One platinum loop of each of Moraxella osloensis NCIMB10693, Moraxella sp. 4-1, Psychrobacter pacificensis NBRC103191, Psychrobacter glacincola NCIMB101053, Pseudomonas alcaligenes No. 41, Acinetobacter calcoaceticus HH2BD-49, Saccaromyces cerevisiae NBRC1661, Rhodotorula mucilaginosa NBRC0909 and Rhodotorula slooffiae 13c was inoculated into 5 mL of a SCD liquid medium (manufactured by Nihon Pharmaceutical Co., Ltd.), and the microbial cells were subjected to shaking culture (160 rpm) at 35° C. for 24 hours. The microbial cells obtained after culture were centrifuged (8000×g, 10 minutes), the supernatant was removed, and then the microbial cells were suspended in 5 mL of physiological saline. The suspension was centrifuged again (8000×g, 10 minutes), subsequently the supernatant was removed, and a microbial suspension was prepared by using physiological saline such that the OD600 would be 0.1.
(§4) Furthermore, 0.1 mL each of 10-ppm or 100-ppm aqueous solutions of the compounds shown in the following Table 6 was applied on the fabric described above. As a control, a fabric on which sterilized water was applied instead of the compounds described below was also prepared.
(§5) On a plain-woven cotton fabric prepared as described above, 0.1 mL each of the various microbial suspensions was inoculated, and the samples were left to stand still under humidified conditions at 37° C. for 24 hours and were subjected to an evaluation such as described below.
(§6) Quantification of 4M3H was carried out by the same method as that used in Test Example 3, and by taking as a reference the 4M3H production amount of a sample on which sterilized water was applied as a test substance, the 4M3H production amounts in the case of applying other test substances were evaluated on the basis of the following criteria. • A: (4M3H production amount in the case of applying a test substance)<( 1/100 of the 4M3H production amount in the case of applying sterilized water) • B: ( 1/100 of the 4M3H production amount in the case of applying sterilized water)≦(4M3H production amount in the case of applying a test substance)<( 1/10 of the 4M3H production amount in the case of applying sterilized water) • C: ( 1/10 of the 4M3H production amount in the case of applying sterilized water)≦(4M3H production amount in the case of applying a test substance)<(4M3H production amount in the case of applying sterilized water) • D: (4M3H production amount in the case of applying sterilized water)≦(4M3H production amount in the case of applying a test substance)

[2] = tested on: R. muculaginosa NBRC0909; assay type: cell-based, Rhodotorula mucilaginosa; conditions: 37° C., 24 hours, vs sterilized water
Experimental: as §1, §2, §3, §4, §5, §6

[3] = tested on: P. pacificensis NBRC103191; assay type: cell-based, Psychrobacter pacificensis; conditions: 37° C., 24 hours, vs sterilized water
Experimental: as §1, §2, §3, §4, §5, §6

[4] = tested on: R. slooffiae 13c; assay type: cell-based, Rhodotorula slooffiae; conditions: 37° C., 24 hours, vs sterilized water
Experimental: as §1, §2, §3, §4, §5, §6

[5] = tested on: P. alcaligenes No. 41; assay type: cell-based, Pseudomonas alcaligenes; conditions: 37° C., 24 hours, vs sterilized water
Experimental: as §1, §2, §3, §4, §5, §6

[6] = tested on: M. osloensis NCIMB10693; assay type: cell-based, Moraxella osloensis; conditions: Faucicola osloensis, M. osloensis NCIMB10693, cotton fabric with 14-methylhexadecanoic acid, 37° C., 24 hours, vs sterilized water, read-out: Production amount of 4M3H; for activity at 100 ppm: 100 ppm test substance
Experimental: as §1, §2, §3, §4, §5, §6

[7] = tested on: S. cerevisiae NBRC1661; assay type: cell-based, Saccaromyces cerevisiae; conditions: 37° C., 24 hours, vs sterilized water
Experimental: as §1, §2, §3, §4, §5, §6

[8] = tested on: A. calcoaceticus HH2BD-49; assay type: cell-based, Acinetobacter calcoaceticus; conditions: 37° C., 24 hours, vs sterilized water
Experimental: as §1, §2, §3, §4, §5, §6

[9] = tested on: P. glacincola NBRC101053; assay type: cell-based, Psychrobacter glacincola; conditions: 37° C., 24 hours, vs sterilized water
Experimental: as §1, §2, §3, §4, §5, §6

Compound	Production amount of 4M3H ([1]; 100 ppm test substance)	Production amount of 4M3H ([2]; 100 ppm test substance)	Production amount of 4M3H ([3]; 100 ppm test substance)	Production amount of 4M3H ([4]; 100 ppm test substance)	Production amount of 4M3H ([5]; 100 ppm test substance)	activity at 100 ppm [6] [%]	Production amount of 4M3H ([7]; 100 ppm test substance)	Production amount of 4M3H ([8]; 100 ppm test substance)	Production amount of 4M3H ([9]; 100 ppm test substance)	Production amount of 4M3H ([1]; 10 ppm test substance)	Production amount of 4M3H ([2]; 10 ppm test substance)	Production amount of 4M3H ([3]; 10 ppm test substance)	Production amount of 4M3H ([4]; 10 ppm test substance)	Production amount of 4M3H ([5]; 10 ppm test substance)	activity at 10 ppm ([6]; 10 ppm test substance) [%]	Production amount of 4M3H ([7]; 10 ppm test substance)	Production amount of 4M3H ([8]; 10 ppm test substance)	Production amount of 4M3H ([9]; 10 ppm test substance)
CCCCCCCC/C=C\CCCCCCCC(=O)O [Oleic acid]	B (( 1/100 of the 4M3H production amount in the case of applying sterilized water)≦(4M3H production amount in the case of applying a test substance)<( 1/10 of the 4M3H production amount in the case of applying sterilized water))	B (( 1/100 of the 4M3H production amount in the case of applying sterilized water)≦(4M3H production amount in the case of applying a test substance)<( 1/10 of the 4M3H production amount in the case of applying sterilized water))	C (( 1/10 of the 4M3H production amount in the case of applying sterilized water)≦(4M3H production amount in the case of applying a test substance)<(4M3H production amount in the case of applying sterilized water))	C (( 1/10 of the 4M3H production amount in the case of applying sterilized water)≦(4M3H production amount in the case of applying a test substance)<(4M3H production amount in the case of applying sterilized water))	C (( 1/10 of the 4M3H production amount in the case of applying sterilized water)≦(4M3H production amount in the case of applying a test substance)<(4M3H production amount in the case of applying sterilized water))	1 to 10	B (( 1/100 of the 4M3H production amount in the case of applying sterilized water)≦(4M3H production amount in the case of applying a test substance)<( 1/10 of the 4M3H production amount in the case of applying sterilized water))	C (( 1/10 of the 4M3H production amount in the case of applying sterilized water)≦(4M3H production amount in the case of applying a test substance)<(4M3H production amount in the case of applying sterilized water))	A ((4M3H production amount in the case of applying a test substance)<( 1/100 of the 4M3H production amount in the case of applying sterilized water))	–	–	–	–	–	–	–	–	–
Cc1ccc(C(C)C)c(O)c1 [Thymol]	B (( 1/100 of the 4M3H production amount in the case of applying sterilized water)≦(4M3H production amount in the case of applying a test substance)<( 1/10 of the 4M3H production amount in the case of applying sterilized water))	A ((4M3H production amount in the case of applying a test substance)<( 1/100 of the 4M3H production amount in the case of applying sterilized water))	B (( 1/100 of the 4M3H production amount in the case of applying sterilized water)≦(4M3H production amount in the case of applying a test substance)<( 1/10 of the 4M3H production amount in the case of applying sterilized water))	C (( 1/10 of the 4M3H production amount in the case of applying sterilized water)≦(4M3H production amount in the case of applying a test substance)<(4M3H production amount in the case of applying sterilized water))	C (( 1/10 of the 4M3H production amount in the case of applying sterilized water)≦(4M3H production amount in the case of applying a test substance)<(4M3H production amount in the case of applying sterilized water))	< 1	D ((4M3H production amount in the case of applying sterilized water)≦(4M3H production amount in the case of applying a test substance))	C (( 1/10 of the 4M3H production amount in the case of applying sterilized water)≦(4M3H production amount in the case of applying a test substance)<(4M3H production amount in the case of applying sterilized water))	B (( 1/100 of the 4M3H production amount in the case of applying sterilized water)≦(4M3H production amount in the case of applying a test substance)<( 1/10 of the 4M3H production amount in the case of applying sterilized water))	C (( 1/10 of the 4M3H production amount in the case of applying sterilized water)≦(4M3H production amount in the case of applying a test substance)<(4M3H production amount in the case of applying sterilized water))	D ((4M3H production amount in the case of applying sterilized water)≦(4M3H production amount in the case of applying a test substance))	D ((4M3H production amount in the case of applying sterilized water)≦(4M3H production amount in the case of applying a test substance))	D ((4M3H production amount in the case of applying sterilized water)≦(4M3H production amount in the case of applying a test substance))	D ((4M3H production amount in the case of applying sterilized water)≦(4M3H production amount in the case of applying a test substance))	1 to 10	C (( 1/10 of the 4M3H production amount in the case of applying sterilized water)≦(4M3H production amount in the case of applying a test substance)<(4M3H production amount in the case of applying sterilized water))	D ((4M3H production amount in the case of applying sterilized water)≦(4M3H production amount in the case of applying a test substance))	C (( 1/10 of the 4M3H production amount in the case of applying sterilized water)≦(4M3H production amount in the case of applying a test substance)<(4M3H production amount in the case of applying sterilized water))

— patent publication US20130210061A1, “Method of Screening Damp-Dry Malodor Inhibitor and Method of Evaluating Damp-Dry Malodor Inhibitor” (KAO CORPORATION, priority 2010, published 2013)
